Test results published in paper PMC11011439, “Influence of Molecular Design on the Tumor Targeting and Biodistribution of PSMA-Binding Tracers Labeled with Technetium-99m” (International Journal of Molecular Sciences, 2024).
Marks after values point to notes of the source that are not given here.

Assays:
PSMA [1] = biological target: T1, PSMA (Homo sapiens, UniProt Q04609); experiment: In vitro binding specificity (saturation with non-labeled PSMA-11) on PC3-pip cells; settings: 2 nM tracer, 250-fold molar excess of PSMA-11, 1 h, 37 °C
T1 construct: expressed in transfected cells; host or cells: PC3-pip cells (from Prof. Martin G. Pomper, Johns Hopkins University)
T1 sequence (Q04609 whole entry): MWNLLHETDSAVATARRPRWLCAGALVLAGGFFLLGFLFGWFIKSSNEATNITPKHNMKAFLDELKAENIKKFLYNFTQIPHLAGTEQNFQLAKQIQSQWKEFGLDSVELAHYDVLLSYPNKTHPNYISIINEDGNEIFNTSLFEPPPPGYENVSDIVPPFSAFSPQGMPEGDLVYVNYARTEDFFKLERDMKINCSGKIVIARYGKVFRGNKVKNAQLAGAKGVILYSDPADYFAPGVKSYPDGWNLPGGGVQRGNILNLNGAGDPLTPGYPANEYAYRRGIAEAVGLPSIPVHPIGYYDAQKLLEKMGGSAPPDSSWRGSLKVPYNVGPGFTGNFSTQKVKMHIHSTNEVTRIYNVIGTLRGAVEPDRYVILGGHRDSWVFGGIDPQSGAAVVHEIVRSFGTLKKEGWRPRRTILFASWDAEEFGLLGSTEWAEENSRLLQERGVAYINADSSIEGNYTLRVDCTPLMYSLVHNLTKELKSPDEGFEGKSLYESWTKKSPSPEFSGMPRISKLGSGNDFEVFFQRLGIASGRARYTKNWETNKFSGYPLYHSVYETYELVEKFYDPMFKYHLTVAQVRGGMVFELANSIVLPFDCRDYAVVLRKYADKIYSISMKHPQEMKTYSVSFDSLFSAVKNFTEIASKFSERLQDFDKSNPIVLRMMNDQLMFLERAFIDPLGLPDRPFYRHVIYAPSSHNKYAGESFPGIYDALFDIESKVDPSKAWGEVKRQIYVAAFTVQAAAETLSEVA
Procedure: For the in vitro binding specificity test, approximately 8 × 10^5 of PC3-pip cells per well were seeded in 6-well plates 24 h before the experiment. Cells in three control wells were pre-saturated with a 250-fold excess of non-labeled PSMA-11 15 min before the addition of radiotracers, while the second set was treated with complete media. After 15 min of incubation at room temperature, [^99mTc]Tc-labeled radioligands were added to all wells to reach a concentration of 2 nM. After one hour of incubation at 37 °C, the cells were washed with PBS solution, detached, and collected. Cell-associated activity was measured using a gamma counter and presented as the percentage of added activity.

PSMA [2] = biological target: T1, PSMA; experiment: Real-time binding kinetics on living PC3-pip cells (LigandTracer Yellow); settings: 5 nM tracer, 1:2 interaction model
Procedure: The binding kinetics of [^99mTc]Tc-labeled BQ0411, BQ0412, and BQ0413 were measured in real time using LigandTracer Yellow Instruments (Ridgeview Instruments AB, Uppsala, Sweden) on PC3-pip cells, as described earlier. The activity binding was recorded at 5 nM on the radiolabeled tracers for 150 min. After measuring the binding kinetics, the medium containing the labeled tracer was replaced with fresh medium, and the dissociation was monitored over 7 h. […]

[3] = Biodistribution in NMRI mice; assay type: in vivo; settings: for activity in carcass / activity in intestines with content / uptake in blood / uptake in kidney / uptake in liver / uptake in lung / uptake in salivary glands / uptake in spleen / uptake in stomach: 40 pmol/mouse iv
Procedure: Four NMRI mice were intravenously injected with 40 pmol of the radiotracer (60 kBq, the mass of the injected compound was adjusted with an unlabeled tracer). The mice were euthanized with a lethal intraperitoneal injection of ketamine/xylazine, followed by exsanguination at 3 and 24 h post-injection (pi). The organs of interest were collected, weighed, and measured for their activity content using a gamma counter. The uptake activity in organs was calculated as the percentage of injected activity per gram (%IA/g) for the blood, salivary glands, lungs, liver, spleen, stomach, and kidneys and as %IA for the remaining carcass and the rest of the intestines with content.

PC3-pip cells = experiment: Cellular processing (internalization) during continuous incubation; assay type: cell-based; settings: 2 nM, 37 °C
Procedure: To evaluate the cellular processing of [^99mTc]Tc-labeled BQ0411 and BQ0412, PC3-pip cells were incubated with the radiolabeled tracer (2 nM), and at predetermined time points (1, 2, 4, and 8 h), cells were treated with 0.5 mL of 4 M urea solution in a 0.2 M glycine buffer, pH 2.5, for 5 min on ice. After that, the acidic supernatant was collected, and this fraction was considered to be the membrane-bound activity. To lyse the cells, 0.5 mL of 1 M sodium hydroxide solution was added and incubated at 37 °C for at least 20 min. The alkaline-containing solution was collected, and the basic fraction was considered to be the internalized activity.

[4] = Stability of the [99mTc]Tc-maG3 complex in PBS and under cysteine challenge (radio-HPLC); assay type: physicochemical
Procedure: The iTLC data were cross-validated using radio-HPLC analysis, performed using a Hitachi Chromaster HPLC system with a radioactivity detector and Phenomenex Luna® C18 column (100 Å; 150 × 4.6 mm; 5 µm) at room temperature (20 °C), in the following conditions: solvent A: 0.1% trifluoroacetic acid (TFA) in H2O, solvent B: 0.1% TFA in acetonitrile, flow rate: 1 mL/min. For identity and purity analysis of [^99mTc]Tc-BQ0411 and [^99mTc]Tc-BQ0412, the method with a gradient from 5 to 60% solvent B over 20 min was used.
To evaluate the chemical stability of the [^99mTc]Tc-maG3 complex, fractions of radiolabeled conjugates (10 µL, 0.25 µg) were incubated with a 300× molar excess of cysteine or with PBS at room temperature for 1 h. The test was run in triplicate.

[5] = Octanol/water distribution coefficient (LogD); assay type: physicochemical; settings: n-octanol / Milli-Q water
Procedure: The LogD was determined experimentally based on the procedure described earlier. Briefly, the radiolabeled compound of interest was added to a LoBind Eppendorf tube (Eppendorf, Hamburg, Germany) containing Milli-Q water (500 μL) and n-octanol (500 μL), and the mixture was vortexed and centrifuged. Thereafter, three fractions from each phase were collected and the activity was measured using a gamma counter. The LogD was calculated by dividing the average activity measured in octanol by the average activity measured in water.

[6] = tested on: PSMA-expressing prostate cancer xenografts (PC3-pip); experiment: Biodistribution and tumor targeting in PC3-pip tumor-bearing mice; assay type: in vivo, BALB/c nu/nu mice; settings: 3 h pi
Procedure: PSMA-expressing prostate cancer xenografts were implanted in BALB/c nu/nu mice by subcutaneous injection of PC3-pip cell suspension in PBS (10^7 cells/animal in 100 µL). The average tumor weight was 0.3 ± 0.2 g at the time of the experiment. Four mice per data point were used. Mice were intravenously injected with 5 nmol of the radiotracer (60 kBq, the mass of the injected compound was adjusted with an unlabeled tracer). The mice were euthanized 3 h pi, and the samples were treated as described above.

SMILES: CC(=O)N[C@@H](CCCCNC(=O)C[N]1C(=O)C[N]2C(=O)C[N]3C(=O)C[S][99Tc-]132=[O])C(=O)NCCCCCCCC(=O)N[C@@H](Cc1ccc(O)cc1)C(=O)N[C@@H](Cc1ccc2ccccc2c1)C(=O)NCCCC[C@H](NC(=O)N[C@@H](CCC(=O)O)C(=O)O)C(=O)O [[^99mTc]Tc-BQ0412]
- binding to PC3-pip cells after pre-treatment with excess non-labeled PSMA-11 (PSMA [1]): significantly (p ˂ 0.0001) decreased
- ka1 (PSMA [2]): 31000 M⁻¹ s⁻¹
- ka2 (PSMA [2]): 46000 M⁻¹ s⁻¹
- kd1 (PSMA [2]): 1.4e-05 s⁻¹
- kd2 (PSMA [2]): 1.6e-05 s⁻¹
- activity in carcass ([3]; 3 h pi): 2.9 ± 0.1 *^,c %IA/sample
- activity in intestines with content ([3]; 3 h pi): 70 ± 7 *^,c %IA/sample
- uptake in blood ([3]; 3 h pi): 0.5 ± 0.1 %IA/g
- uptake in kidney ([3]; 3 h pi): 56 ± 9 *^,c %IA/g
- uptake in liver ([3]; 3 h pi): 3 ± 1 *^,c %IA/g
- uptake in lung ([3]; 3 h pi): 0.3 ± 0.1 *^,c %IA/g
- uptake in salivary glands ([3]; 3 h pi): 0.24 ± 0.03 *^,c %IA/g
- uptake in spleen ([3]; 3 h pi): 0.23 ± 0.07 *^,c %IA/g
- uptake in stomach ([3]; 3 h pi): 0.17 ± 0.03 *^,c %IA/g
- activity in carcass ([3]; 24 h pi): 0.12 ± 0.03 ^c %IA/sample
- activity in intestines with content ([3]; 24 h pi): 0.16 ± 0.04 ^c %IA/sample
- uptake in blood ([3]; 24 h pi): 0.016 ± 0.002 ^c %IA/g
- uptake in kidney ([3]; 24 h pi): 1.1 ± 0.3 ^c %IA/g
- uptake in liver ([3]; 24 h pi): 0.016 ± 0.004 ^c %IA/g
- uptake in lung ([3]; 24 h pi): 0.014 ± 0.008 ^c %IA/g
- uptake in salivary glands ([3]; 24 h pi): 0.015 ± 0.006 ^c %IA/g
- uptake in spleen ([3]; 24 h pi): 0.007 ± 0.005 %IA/g
- uptake in stomach ([3]; 24 h pi): 0.07 ± 0.05 ^c %IA/g
- uptake in intestines with content, fold higher than [99mTc]Tc-BQ0411 ([3]; 3 h pi): 1.6 fold
- uptake in kidneys, fold lower than [99mTc]Tc-BQ0411 ([3]; 3 h pi): 2.3 fold
- activity remaining in the body ([3]; 3 h pi, excluding activity in the intestines with content): 20–30 % from injected
- washout of activity from kidneys ([3]; 24 h pi compared to 3 h pi): 98%
- internalized activity (of cell-associated activity) (PC3-pip cells; 4 h of continuous incubation): 43 ± 1%
- internalized activity (of cell-associated activity) (PC3-pip cells; after 4 h (8 h of continuous incubation)): 32 ± 1%
- release of activity under cysteine challenge ([4]; 300-fold molar excess of cysteine, room temperature, 1 h): around 60%
- stability during incubation in PBS ([4]; PBS, room temperature, 1 h): stable
- share of activity in radio-HPLC peak, retention time 6.2 min ([4]; cysteine challenge, radiolabeled product, speculated Tc–cysteine complex): 32.5%
- share of activity in radio-HPLC peak, retention time 14.1 min ([4]; cysteine challenge, radiolabeled product, speculated intermediate transchelation product): 25.5%
- logD (octanol–water distribution coefficient) [5]: −2.3 ± 0.1
- activity in carcass ([6]; 5 nmol/mouse iv): 2.6 ± 1.3 %IA/sample
- activity in intestines with content ([6]; 5 nmol/mouse iv): 69 ± 17 ^c %IA/sample
- uptake in blood ([6]; 5 nmol/mouse iv): 0.5 ± 0.1 %IA/g
- uptake in bone ([6]; 5 nmol/mouse iv): 0.15 ± 0.07 %IA/g
- uptake in kidney ([6]; 5 nmol/mouse iv): 16 ± 5 %IA/g
- uptake in liver ([6]; 5 nmol/mouse iv): 0.5 ± 0.1 %IA/g
- uptake in lung ([6]; 5 nmol/mouse iv): 0.5 ± 0.1 %IA/g
- uptake in muscle ([6]; 5 nmol/mouse iv): 0.2 ± 0.1 %IA/g
- uptake in pancreas ([6]; 5 nmol/mouse iv): 0.4 ± 0.3 %IA/g
- uptake in salivary glands ([6]; 5 nmol/mouse iv): 0.2 ± 0.1 ^c %IA/g
- uptake in small intestine ([6]; 5 nmol/mouse iv): 1.2 ± 0.7 ^c %IA/g
- uptake in spleen ([6]; 5 nmol/mouse iv): 0.6 ± 0.3 %IA/g
- uptake in stomach ([6]; 5 nmol/mouse iv): 0.3 ± 0.2 %IA/g
- uptake in tumor ([6]; 5 nmol/mouse iv): 17 ± 5 %IA/g
- tumor-to-blood ratio ([6]; 5 nmol/mouse): 35 ± 4 ^c
- tumor-to-bone ratio ([6]; 5 nmol/mouse): 128 ± 38
- tumor-to-kidney ratio ([6]; 5 nmol/mouse): 1.1 ± 0.1
- tumor-to-liver ratio ([6]; 5 nmol/mouse): 35 ± 5 ^c
- tumor-to-lung ratio ([6]; 5 nmol/mouse): 39 ± 6
- tumor-to-muscle ratio ([6]; 5 nmol/mouse): 143 ± 58 ^c
- tumor-to-pancreas ratio ([6]; 5 nmol/mouse): 82 ± 33
- tumor-to-salivary ratio ([6]; 5 nmol/mouse): 90 ± 16 ^c
- tumor-to-small intestine ratio ([6]; 5 nmol/mouse): 19 ± 9 ^c
- tumor-to-spleen ratio ([6]; 5 nmol/mouse): 26 ± 6
- tumor-to-stomach ratio ([6]; 5 nmol/mouse): 77 ± 29
- activity uptake in the gastrointestinal tract (with content) [6]: over 40 %IA
